Laboratory results from patent US7279302B2, “Methods for identifying herbicidal compounds” (Bayer CropScience S.A., priority 2000, dated 2007).

Legend:
Format in all cases: biochemical
[1] = molecular target: T1, TyrA-AT2 arogenate dehydrogenase (Arabidopsis thaliana, UniProt Q944B6); test: arogenate dehydrogenase activity, spectrophotometric monitoring at 340 nm, recombinant TyrA-AT2; details: for inhibition of arogenate dehydrogenase activity: 1 mM; for Michaelis constant: Km for substrate/cofactor
T1 construct: at the ATG codon of the second open reading frame (at position 1081 from the first ATG codon); made in house; host or cells: Escherichia coli AT2471 (pET21a(+)), soluble crude extract
T1 sequence (Q944B6 339-640): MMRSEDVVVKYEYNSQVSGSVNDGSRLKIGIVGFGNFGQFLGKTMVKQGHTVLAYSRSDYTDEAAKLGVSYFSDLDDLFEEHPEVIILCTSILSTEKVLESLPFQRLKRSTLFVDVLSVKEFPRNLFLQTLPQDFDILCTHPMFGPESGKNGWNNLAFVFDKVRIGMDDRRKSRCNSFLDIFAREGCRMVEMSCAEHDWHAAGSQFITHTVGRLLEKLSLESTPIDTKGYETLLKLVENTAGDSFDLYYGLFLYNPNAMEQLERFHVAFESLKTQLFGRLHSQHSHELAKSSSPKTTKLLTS
Protocol: (§1) The arogenate dehydrogenase activity is measured at 25° C. by spectrophotometric monitoring, at 340 nm, of the formation of NADH or NADPH in a solution containing 50 mM of Tris-HCl, pH 8.6, 300 μm of arogenate and 1 mM of NAD or […] in a total volume of 200 μl.
(§2) Eshcerichia coli AT2471 cells were transformed with each one of the plasmids pET21-TyrA-AT obtained in example 3, and then cultured at 37° C. in 2 liters of Luria-Bertani medium supplemented with 100 μg/ml of carbenicillin. When the culture had reached the equivalent of an absorbance at 600 nm (A600) of 0.6, 1 mM of isopropyl-β-D-thiogalactoside was added to the culture medium in order to induce recombinant protein synthesis. The cells were then cultured for 16 h at 28° C., harvested, and then centrifuged for 20 min at 40 000 g. The pellet was then resuspended in a 50 mM Tris-HC1 buffer, pH 7.5, containing 1 mM EDTA, 1 mM dithiothreitol, 1 mM benzamidine HCl and 5 mM aminocaproic acid, and then sonicated (100 pulses every 3 seconds at power 5) with a Vibra-Cell disrupter (Sonics and Materials, Danbury, Conn., USA). The crude extracts thus obtained were then centrifuged for 20 min at 40 000 g, and the supernatants were used directly for the enzyme assays.
(§3) The biochemical characterization of the recombinant arogenate dehydrogenase enzymes was carried out using the soluble protein extracts of the transformed E. coli strains. The arogenate dehydrogenase activity was measured according to the method described in example 4. […] No arogenate dehydrogenase activity was detected in the presence of NAD, and no prephenate dehydrogenase activity was detected whatever the cofactor used (NADP or NAD) and whatever the protein tested (TyrA-ATc, TyrA-AT1 or TyrA-AT2). […] Each one of these enzymes has a Michaelis-Menten-type behavior, and their Km value for arogenate and NADP is relatively the same (FIGS. 2 and 3). The Michaelis constants for NADP are, respectively, 40 μM for TyrA-Atc, 60 μM for TyrA-AT1, and 20 μM for TyrA-AT2. The Michaelis constants for arogenate are, respectively, 70 μM for TyrA-Atc, 45 μM for TyrA-AT1, and 45 μM for TyrA-AT2. In addition, like the other plant arogenate dehydrogenases (Byng et al., 1981, Phytochemistry 6, 1289-1292; Connelly and Conn, 1986, Z. Naturforsch 41c, 69-78; Gaines et al., 1982 Planta 156, 233-240), the Arabidopsis arogenate dehydrogenases are all very sensitive to tyrosine, the product of the enzyme reaction, and insensitive to 1 mM of phenylalanine and 1 mM of p-hydroxyphenylpyruvate.

[2] = molecular target: T2, TyrA-ATc arogenate dehydrogenase (Arabidopsis thaliana, UniProt Q944B6, V36M); test: arogenate dehydrogenase activity, spectrophotometric monitoring at 340 nm, recombinant TyrA-ATc; details: for inhibition of arogenate dehydrogenase activity: TyrA-ATc, 1 mM; for Michaelis constant: TyrA-Atc, Km for substrate/cofactor
T2 construct: introduces an ATG initiating codon and an Nde I restriction site (underlined) at position 174 from the first ATG codon (V58M); made in house; host or cells: Escherichia coli AT2471 (pET21a(+)), soluble crude extract
Protocol: as §1, §2, §3

[3] = molecular target: T3, TyrA-AT1 arogenate dehydrogenase (Arabidopsis thaliana, UniProt Q944B6); test: arogenate dehydrogenase activity, spectrophotometric monitoring at 340 nm, recombinant TyrA-AT1; details: for inhibition of arogenate dehydrogenase activity: 1 mM; for Michaelis constant: Km for substrate/cofactor
T3 construct: recombinant proteins were observed only with the constructs encoding the proteins M58-TyrA-Atc and M58-TyrA-AT1; made in house; host or cells: Escherichia coli AT2471 (pET21a(+)), soluble crude extract
T3 sequence (Q944B6 with tags, fused parts or gaps): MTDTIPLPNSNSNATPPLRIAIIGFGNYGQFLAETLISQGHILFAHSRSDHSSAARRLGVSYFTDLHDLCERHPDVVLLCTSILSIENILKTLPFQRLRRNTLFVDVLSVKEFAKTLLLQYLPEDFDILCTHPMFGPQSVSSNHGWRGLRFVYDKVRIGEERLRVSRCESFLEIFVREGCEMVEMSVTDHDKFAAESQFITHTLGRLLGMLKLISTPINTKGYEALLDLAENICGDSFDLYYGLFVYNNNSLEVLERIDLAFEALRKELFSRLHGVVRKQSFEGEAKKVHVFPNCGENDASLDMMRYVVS
Protocol: as §1, §2, §3

[4] = tested on: Synechocystis arogenate dehydrogenase; test: arogenate dehydrogenase activity, spectrophotometric monitoring at 340 nm, recombinant Synechocystis enzyme; details: for Michaelis constant: Km for substrate/cofactor
Protocol: as §1, §2
The sequence of the gene encoding the A. thaliana arogenate dehyrogenase identified in example 1 (TyrA) made it possible to identify an arogenate dehydrogenase gene in the bacterium Synechocystis (accession number: 1652956). This gene was originally described as encoding a “prephenate dehydrogenase” enzyme. It was isolated from a Synechocystis genomic library and the enzyme was produced in the same way as the A. thaliana enzyme, according to the protocol described in example 5 . […] The arogenate dehydrogenase activity was measured according to the method described in example 4 . […] No arogenate dehydrogenase activity was detected in the presence of NAD, and no prephenate dehydrogenase activity was detected whatever the cofactor used (NADP or NAD). […]

[5] = molecular target: T4, TyrA-ATc arogenate dehydrogenase (Arabidopsis thaliana, UniProt Q944B6); test: arogenate dehydrogenase activity, spectrophotometric monitoring at 340 nm, recombinant TyrA-ATc; details: TyrA-Atc; inhibition competitive with respect to arogenate
T4 construct: introduces an ATG initiating codon and an Nde I restriction site (underlined) at position 174 from the first ATG codon (V58M); made in house; host or cells: Escherichia coli AT2471 (pET21a(+)), soluble crude extract
Protocol: as §1, §2, §3

[6] = inhibition competitive with respect to arogenate

T2 sequence (Q944B6 36-640 V36M): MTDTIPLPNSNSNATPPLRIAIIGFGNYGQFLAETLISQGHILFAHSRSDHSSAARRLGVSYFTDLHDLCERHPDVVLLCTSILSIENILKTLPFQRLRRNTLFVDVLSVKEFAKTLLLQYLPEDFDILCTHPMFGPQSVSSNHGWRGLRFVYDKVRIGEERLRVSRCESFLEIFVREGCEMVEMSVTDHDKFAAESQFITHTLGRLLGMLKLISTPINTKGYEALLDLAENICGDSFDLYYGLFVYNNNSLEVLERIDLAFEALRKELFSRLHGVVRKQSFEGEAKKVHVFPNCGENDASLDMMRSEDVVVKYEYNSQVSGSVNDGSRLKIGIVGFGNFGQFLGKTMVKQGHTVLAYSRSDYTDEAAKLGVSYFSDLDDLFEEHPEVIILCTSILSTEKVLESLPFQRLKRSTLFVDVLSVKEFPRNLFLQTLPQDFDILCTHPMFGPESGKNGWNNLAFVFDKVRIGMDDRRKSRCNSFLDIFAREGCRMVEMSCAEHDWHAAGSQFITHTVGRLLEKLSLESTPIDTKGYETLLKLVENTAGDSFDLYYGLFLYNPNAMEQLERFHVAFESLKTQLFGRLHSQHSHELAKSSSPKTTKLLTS
T4 sequence (Q944B6 36-640 V36M): as above

Row | Structure (SMILES) | inhibition of arogenate dehydrogenase activity [1] | inhibition of arogenate dehydrogenase activity [2] | inhibition of arogenate dehydrogenase activity [3] | Michaelis constant [1] [µM] | Michaelis constant [2] [µM] | Michaelis constant [3] [µM] | Michaelis constant [4] [µM] | other results
1 | O=C(O)C(=O)CC1(C(=O)O)C=CC(O)C=C1 (stereo not drawn) [prephenate] | does not inhibit | does not inhibit | does not inhibit | – | – | – | – | inhibition of arogenate dehydrogenase activity ([4]; 1 mM): does not inhibit
2 | N[C@@H](Cc1ccc(O)cc1)C(=O)O [tyrosine] | – | – | – | – | – | – | – | Ki [1, 6]: 12 µM; Ki [5]: 14 µM; Ki [3, 6]: 8 µM
3 | N[C@@H](Cc1ccccc1)C(=O)O [phenylalanine] | insensitive | insensitive | insensitive | – | – | – | – | –
4 | O=C(O)C(=O)Cc1ccc(O)cc1 [p-hydroxyphenylpyruvate] | insensitive | insensitive | insensitive | – | – | – | – | –
5 | N[C@@H](CC1(C(=O)O)C=CC(O)C=C1)C(=O)O (stereo partly drawn) [arogenate] | – | – | – | 45 | 70 | 45 | 107 | –
6 | NC(=O)c1ccc[n+]([C@@H]2O[C@H](COP(=O)([O-])OP(=O)(O)OC[C@H]3O[C@@H](n4cnc5c(N)ncnc54)[C@H](OP(=O)(O)O)[C@@H]3O)[C@@H](O)[C@H]2O)c1 [NADP] | – | – | – | 20 | 40 | 60 | 6 | –
